US20140255527A1, “Expression Promoting Agent For Clock Gene And Hyaluronic Acid Synthase Gene” (SHISEIDO COMPANY, LTD., priority 2011, published 2014)

Legend:
Format in all cases: cell-based
Details in all cases: medical agent for stimulation in cultured human dermal fibroblast system; no data shown
[1] = test system: Bmal1 clock gene; test: Expression amount of Bmal1 clock gene in cultured human dermal fibroblast (RT-PCR, relative to RPLP0)
Experimental: (§1) Moreover, as the clock gene, an amount of expression of a Bmal gene (typified by Bmal1) or a Period gene (typified by Period1) in connection with the core system was measured. As a hyaluronic acid synthase gene, an amount of expression of hyaluronic acid synthase gene 2 (HAS2) was measured. […] In experiments described below, a gene expression amount after 16 hours or 2 hours from the stimulation was used as an index, respectively, and an effect on promotion of expression of the Bmal gene, the Period gene and the HAS2 gene being a test substance was evaluated.
(§2) As a cultured human dermal fibroblast, a commercially available normal human dermal fibroblast derived from adult skin (Cell Application, Inc) was purchased, and used for an experiment. Seeding was made in a DMEM culture medium prepared by adding 10% FBS, 20 mM HEPES, Glutamax and an antibacterial agent, and culture was made at 37° C. under 5% CO2. […] From the cell taken therefrom, RNA was extracted using a commercially available RNA extraction kit, and an expression amount of a clock gene (Period1, Bmal1) and a hyaluronic acid synthase gene (HAS2) was measured using a commercially available PCR primer (Perfect Real Time Primer, TAKARA BIO INC.) according to an RT-PCR method. […]

[2] = test system: Period1 clock gene; test: Expression amount of Period1 clock gene in cultured human dermal fibroblast (RT-PCR, relative to RPLP0)
Experimental: as §1, §2

[3] = test system: HAS2 hyaluronic acid synthase gene; test: Expression amount of HAS2 hyaluronic acid synthase gene in cultured human dermal fibroblast (RT-PCR, relative to RPLP0)
Experimental: as §1, §2

Row | SMILES | time of peaked expression amount of Bmal1 after stimulation (circadian rhythm) [1] | time of peaked expression amount of Period1 after stimulation (circadian rhythm) [2] | time of peaked expression amount of HAS2 after stimulation (circadian rhythm) [3]
1 | C[C@]12CCC(=O)C=C1CC[C@@H]1[C@@H]2[C@@H](O)C[C@@]2(C)[C@H]1CC[C@]2(O)C(=O)CO [cortisol] | approximately 16 hours | 2 h | approximately 16 hours
2 | C=C[C@@]1(C)CC(=O)[C@]2(O)[C@@]3(C)[C@@H](O)CCC(C)(C)[C@@H]3[C@H](O)[C@H](OC(C)=O)[C@@]2(C)O1 [forskolin] | approximately 16 hours | 2 h | approximately 16 hours
